# Measurements taken from US9789116B2, “Compositions and methods of modulating short-chain dehydrogenase activity” (CASE WESTERN RESERVE UNIVERSITY, priority 2013, dated 2017).
# Key:
# [1] = system: FVB male mice; assay: Dextran sodium sulfate (DSS) induced colitis; type: in vivo, mouse
# [2] = system: bone marrow SKL cells and stromal cells; assay: Gene expression in bone marrow SKL and CD45(-) stromal cells of treated mice; type: in vivo, mouse
# Method: 2 hours following the last dose bone marrow is harvested and sorted into SKL marked cells that are hematopoietic stem cell enriched and into CD45 (−) cells that are bone marrow stroma cells. RNA was extracted and gene expression determined relative to levels in mice injected with vehicle control.
# [3] = system: C57BL/6J mice irradiated with 11Gy; assay: Survival of irradiated mice receiving marrow allograft (Example 6); type: in vivo, mouse; conditions: cohort of 3
# Source text: The experimental design is depicted in FIG. 50.
# Under the conditions of the mouse colony during this study, control mice receiving 100,000-500,000 cells are all dead between days 4-13 of study. […] Such activity would be of particular utility in settings, such as transplantation with umbilical cord stem cells, in which donor cell numbers are limited.
# [4] = system: A549 cells; assay: PGE2 levels in medium of IL1-beta stimulated A549 cells; type: cell-based; conditions: IL1-beta 23 hours, compound added for the last 5 hours
# [5] = system: FVB mice; assay: Toxicity study in FVB mice, daily weights; type: in vivo, mouse; conditions: 5 mg/kg IP twice daily for 21 days, N=6
# [6] = system: lethally irradiated mice; assay: Homing of CFSE dye labeled bone marrow cells in lethally irradiated mice; type: in vivo, mouse; conditions: 10 mg/kg IP
# Method: Drugs are administered following radiation, following the transplant, and again at 8 hours after the transplant.
# [7] = system: cell culture; assay: Toxicity in a cell culture assay (decrease of cell numbers); type: cell-based; conditions: concentration needed to decrease cell numbers in a cell culture assay
# Method: Time to inhibition refers to the time needed to inhibit the generation of NADH by 15-PGDH from the moment with drug is added into the reaction mix. Delta Tm refers to the shift in melting temperature of recombinant 15-PGDH in the presence of drug (with cofactor NADH also present). Concentration of Full Cell Line Reporter Induction refers to the concentration of drug that needs to be added to reporter cell line to achieve maximal induction of the 15-PGDH-luciferase gene fusion reporter cassette, as measured by luciferase assays. Hepatocyte stability refers to the half-life of compound in the presence of hepatocytes in culture. Toxicity refers to the concentration of compound needed to decrease cell numbers in a cell culture assay.
# [8] = system: NSG mice; assay: Homing of human umbilical cord blood buffy coat cells in NSG mice; type: in vivo, mouse
# Method: FIG. 93 illustrates a schema of an experiment in which immune deficient NSG mice are lethally irradiated (IR) and 12 hours later receive a transplant with CFSE dye labeled buffy coat cells from human umbilical cord blood (UCB), and number of transplanted cells that home and survive in the bone marrow of the recipient mice are then determined by FACS at 16 hours post-transplant. In different arms of the experiment mice are treated with vehicle or with SW033291. Drugs are administered following radiation, following the transplant, and again at 8 hours after the transplant.
compound,measurement,setting,value
"CCCC[S+]([O-])c1sc2nc(-c3cccs3)cc(-c3ccccc3)c2c1N (stereo not shown) [SW033291, 2-(butylsulfinyl)-4-phenyl-6-(thiophen-2-yl)thieno[2,3-b]pyridin-3-amine]",change from baseline weight,"[1]; 22 days, P=0.001",greater weight at all time points
same,colon ulcer formation,"[1]; colonoscopy days 8, 11, 15",prevents two-thirds of ulcer formation
same,reduction of length of ulcerated mucosa versus control,"[1]; day 15, P=0.045",61%
same,body weight and colon length,[1]; day 22,greater body weight and greater colon lengths
same,MEICS scores,"[1]; days 8, 11 and 15",significantly less colitis activity
same,induction of CXCL12,[2],greater than 4 fold
same,induction of SCF,[2],greater than 4 fold
same,Number of mice surviving,"[3]; 1 × 10^5 cells, Day 1",3
same,Number of mice surviving,"[3]; 1 × 10^5 cells, Day 2",3
same,Number of mice surviving,"[3]; 1 × 10^5 cells, Day 3",3
same,Number of mice surviving,"[3]; 1 × 10^5 cells, Day 4",2
same,Number of mice surviving,"[3]; 1 × 10^5 cells, Day 5",1
same,Number of mice surviving,"[3]; 1 × 10^5 cells, Day 6",0
same,Number of mice surviving,"[3]; 2 × 10^5 cells, Day 1",3
same,Number of mice surviving,"[3]; 2 × 10^5 cells, Day 2",3
same,Number of mice surviving,"[3]; 2 × 10^5 cells, Day 3",3
same,Number of mice surviving,"[3]; 2 × 10^5 cells, Day 4",3
same,Number of mice surviving,"[3]; 2 × 10^5 cells, Day 5",3
same,Number of mice surviving,"[3]; 2 × 10^5 cells, Day 6",2
same,Number of mice surviving,"[3]; 2 × 10^5 cells, Day 7",2
same,Number of mice surviving,"[3]; 2 × 10^5 cells, Day 8",2
same,Number of mice surviving,"[3]; 2 × 10^5 cells, Day 9",2
same,Number of mice surviving,"[3]; 2 × 10^5 cells, Day 10",2
same,Number of mice surviving,"[3]; 2 × 10^5 cells, Day 11",2
same,Number of mice surviving,"[3]; 2 × 10^5 cells, Day 12",1
same,Number of mice surviving,"[3]; 2 × 10^5 cells, Day 13",0
same,Number of mice surviving,"[3]; 5 × 10^5 cells, Day 1",3
same,Number of mice surviving,"[3]; 5 × 10^5 cells, Day 2",3
same,Number of mice surviving,"[3]; 5 × 10^5 cells, Day 3",3
same,Number of mice surviving,"[3]; 5 × 10^5 cells, Day 4",3
same,Number of mice surviving,"[3]; 5 × 10^5 cells, Day 5",3
same,Number of mice surviving,"[3]; 5 × 10^5 cells, Day 6",3
same,Number of mice surviving,"[3]; 5 × 10^5 cells, Day 7",3
same,Number of mice surviving,"[3]; 5 × 10^5 cells, Day 8",2
same,Number of mice surviving,"[3]; 5 × 10^5 cells, Day 9",2
same,Number of mice surviving,"[3]; 5 × 10^5 cells, Day 10",2
same,Number of mice surviving,"[3]; 5 × 10^5 cells, Day 11",2
same,Number of mice surviving,"[3]; 5 × 10^5 cells, Day 12",2
same,Number of mice surviving,"[3]; 5 × 10^5 cells, Day 13",2
same,15-PGDH activity in cells as reflected in PGE2 levels in medium,[4],clear inhibition of 15-PGDH activity in the cells
same,mouse weight gain,[5],no evidence for SW033291 reducing mouse weight
same,increase in numbers of homed cells in recipient bone marrow,[6]; FIG. 88,3 fold
same,increase in numbers of homed cells in recipient bone marrow,[6]; FIG. 90,2 fold
same,increase in numbers of homed donor cells in recipient bone marrow,[6]; FIG. 140,approximately 2.5 fold
same,Toxicity,[7],>10 µM
same,increase in numbers of homed human cells in recipient bone marrow,[8],~2 fold
